Laboratory results from patent US20210085640A1, “ACYLATED CATECHIN POLYPHENOLS AND METHODS OF THEIR USE FOR THE TREATMENT OF CANCER” (Flagship Pioneering Innovations V, Inc., priority 2018, published 2021).

How the values were obtained:
[1] = Human Regulatory T Cell Differentiation Assay; format: cell-based; details: human, primary naïve CD4+ T cells isolated from PBMCs, 3 mM, read-out: Cell viability % DMSO
Experimental: (§1) Peripheral blood mononuclear cells (PBMCs) from whole blood donated by health volunteers were separated by Ficoll-Paque gradient centrifugation and naïve CD4^+ T cells were subsequently isolated using magnet beads (EasySep™ Human Naïve CD4^+ T Cell Isolation Kit, Cambridge, Mass.). For regulatory T cell (Treg) differentiation assay, naïve CD4^+ T cells were cultured (1-10×10^4 cells) in CTS OpTmizer medium for 6 days and stimulated with 5 ng/ml TGF-β, 100 U/ml IL-2, and ImmunoCult™ Human […] T Cell Activator; Stemcell #10990) with/without Compounds. Cell viability was determined using a viability dye (eBioscience Fixable Viability Dye eFluor 780: ThermoFisher 65-0865-14) at 1:500 dilution. The cells were gated for Treg, defined as Live, CD11c^−, CD14^−, CD19^−, CD8^−, CD4^+, CD3^+, CD25^+, FOXP3^+. Percent (%) Tregs were calculated as percentage of CD4^+, CD25^+, FOXP3^+ cells over total CD4^+ T cells. Statistical analysis was performed with GraphPad Prism Software Using One-Way ANOVA.

naïve CD4^+ T cells = assay: Human Regulatory T Cell Differentiation Assay; format: cell-based; details: 6 days
Experimental: as §1

[2] = Stability in Simulated Gastric Fluid (SGF); format: in vitro ADME; details: SGF pH 1.6 with pepsin, 1 μM, 37° C.
Experimental: Stability of acylated active agents in Simulated Gastric Fluid (SGF). This assay was used to assess the stability of an acylated active agent in a stomach.
Medium was prepared by dissolving 2 g of sodium chloride in 0.6 L in ultrapure water (MilliQ®, Millipore Sigma, Darmstadt, Germany). The pH was adjusted to 1.6 with 1N hydrochloric acid, and the volume was then adjusted to 1 L with purified water.
60 mg FaSSIF powder (Biorelevant™, London, UK) were dissolved in 500 mL buffer (above). Pepsin was added (0.1 mg/mL) (Millipore Sigma, Darmstadt, Germany), and the solution was stirred. The resulting SGF media were used fresh for each experiment.
Test compounds were dissolved in DMSO stock to 1 mM. An aliquot of the DMSO stock solution was removed and diluted in the SGF Media in 15 mL falcon tubes to generate a total compound concentration of 1 μM. A 1 mL aliquot was immediately removed and diluted once with 1 volume of acetonitrile for T0 timepoint. The mixture was sealed and mixed at 37° C. in an incubator. Aliquots (1 mL) were removed at regular intervals and immediately quenched by the addition of 1 volume of acetonitrile. The resulting samples were analyzed by LC/MS to determine degradation rates

[3] = Fecal Incubation Stability; format: in vitro ADME; details: fecal slurry, anaerobic, 1 or 10 μM
Experimental: Fecal Incubation Stability. This assay was used to assess the stability of an acylated active agent in a large intestine. All experiments were performed in an anaerobic chamber containing 90% nitrogen, 5% hydrogen and 5% carbon dioxide. Fecal matter in a slurry (15% VW is added to 96 well plates containing YCFA media or other suitable media (1.6 mL). Compounds were added to each individual well to reach a final analyte concentration of 1 or 10 μM, and the material was mixed by pipetting. At set time points a sample was removed, quenched with acetonitrile, and analyzed by LC/MS.

[4] = test system: PC-3 prostate cancer cells; assay: Cancer cell survival (CellTiter-Glo), PC-3; format: cell-based; details: PC-3 cells, 72 h
Method in brief: (§2)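 Log-phase cells are plated at 4×10^3 per well and incubated overnight. Compounds, prepared in media as 10× solutions, are then added and the plates held 72 h at 37 C. Viability is measured by CellTiter-Glo luminescence, and IC50 is derived from survival relative to untreated controls.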

A549 lung cancer cells = assay: Cancer cell survival (CellTiter-Glo), A549; format: cell-based; details: 72 h
Method in brief: as §2

A-431 skin cancer cells = assay: Cancer cell survival (CellTiter-Glo), A-431; format: cell-based; parameters: Cell survival at given concentration: unit not given here; details: A-431 cells, 72 h
Method in brief: as §2

T24 bladder cancer cells = assay: Cancer cell survival (CellTiter-Glo), T24; format: cell-based; details: 72 h
Method in brief: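 T24 cells seeded at 4×10^3 cells/well overnight, then exposed 72 h at 37 C, 5% CO2 to nine concentrations in triplicate. Survival measured by CellTiter-Glo luminescence relative to untreated and medium controls; IC50 derived.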

AGS stomach cancer cells = assay: Cancer cell survival (CellTiter-Glo), AGS; format: cell-based; parameters: Cell survival at given concentration: unit not given here
Method in brief: as §2

[5] = test system: HCT 116 colorectal cancer cells; assay: Cancer cell survival (CellTiter-Glo), HCT 116; format: cell-based; details: HCT 116 cells, 72 h
Method in brief: as §2

MCF7 breast cancer cells = assay: Cancer cell survival (CellTiter-Glo), MCF7; format: cell-based; details: 72 h
Method in brief: as §2

[6] = test system: Daudi lymphoma cancer cells; assay: Cancer cell survival (CellTiter-Glo), Daudi; format: cell-based; details: 72 h
Method in brief: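 Daudi cells (4×10^3/well) were exposed for 72 h at 37 °C to nine concentrations of compound, added as 10× solutions spanning 1 μM–10 mM (fatty acids) or 100 nM–1 mM (others). CellTiter-Glo luminescence gave % survival versus untreated, medium-blank corrected; IC50 derived.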

CCC(=O)O [Propionic acid]
viability at 6 days, 3 mM [1]: 90 to 110%
activity at 3000 µM (naïve CD4^+ T cells; Homo sapiens, CD4+ T, 144 h, 3 mM, read-out: Treg induction % DMSO): > 130%

CC(O)CC(=O)[O-].[Na+] (centres unmarked) [Sodium BHB]
Cell viability % DMSO (naïve CD4^+ T cells; 2 mM): = (90% ≥ ≤110%: =)
Treg induction % DMSO (naïve CD4^+ T cells; 2 mM): + (110% > ≤130%: +)
Cell viability % DMSO (naïve CD4^+ T cells; 20 mM): − (<90%: −)
Treg induction % DMSO (naïve CD4^+ T cells; 20 mM): = (90% ≥ ≤110%: =)

CCCC(=O)O[C@H](C)CC(=O)Oc1ccc(/C=C/c2cc(OC(=O)C[C@@H](C)OC(=O)CCC)cc(OC(=O)C[C@@H](C)OC(=O)CCC)c2)cc1 [Compound 16, [4-[(E)-2-[3,5-bis[[(3R)-3-butanoyloxybutanoyl]oxy]phenyl]vinyl]phenyl] (3R)-3-butanoyloxy-butanoate]
Assay 1 (SGF) (% Remaining @ 1 hours) [2]: C (>75% of the tested compound remaining)
Assay 3 (% Remaining at 24 h) [3]: A (<25% of the tested compound remaining)

O=C(O[C@@H]1Cc2c(O)cc(O)cc2O[C@@H]1c1cc(O)c(O)c(O)c1)c1cc(O)c(O)c(O)c1 [EGCG, epigallocatechin gallate]
Cell survival at given concentration ([4]; 101 nM): 1.01
Cell survival at given concentration ([4]; 318 nM): 0.99
Cell survival at given concentration ([4]; 1 μM): 1.01
Cell survival at given concentration ([4]; 3 μM): 0.97
Cell survival at given concentration ([4]; 10 μM): 0.99
Cell survival at given concentration ([4]; 32 μM): 0.82
Cell survival at given concentration ([4]; 100 μM): 0.60
Cell survival at given concentration ([4]; 316 μM): 0.51
Cell survival at given concentration ([4]; 1000 μM): 0.10
IC50 ([4]; Table 8.1): 245 µM
Cell survival at given concentration (A549 lung cancer cells; 101 nM): 1.02
Cell survival at given concentration (A549 lung cancer cells; 318 nM): 1.05
Cell survival at given concentration (A549 lung cancer cells; 1 μM): 1.03
Cell survival at given concentration (A549 lung cancer cells; 3 μM): 1.04
Cell survival at given concentration (A549 lung cancer cells; 10 μM): 0.99
Cell survival at given concentration (A549 lung cancer cells; 32 μM): 0.77
Cell survival at given concentration (A549 lung cancer cells; 100 μM): 0.33
Cell survival at given concentration (A549 lung cancer cells; 316 μM): 0.21
Cell survival at given concentration (A549 lung cancer cells; 1000 μM): 0.01
IC50 (A549 lung cancer cells; Table 7.1): 67.4 µM
Cell survival at given concentration (A-431 skin cancer cells; 101 nM): 1.02
Cell survival at given concentration (A-431 skin cancer cells; 318 nM): 1.02
Cell survival at given concentration (A-431 skin cancer cells; 1 μM): 1.02
Cell survival at given concentration (A-431 skin cancer cells; 3 μM): 1.01
Cell survival at given concentration (A-431 skin cancer cells; 10 μM): 1.04
Cell survival at given concentration (A-431 skin cancer cells; 32 μM): 0.78
Cell survival at given concentration (A-431 skin cancer cells; 100 μM): 0.38
Cell survival at given concentration (A-431 skin cancer cells; 316 μM): 0.30
Cell survival at given concentration (A-431 skin cancer cells; 1000 μM): 0.04
IC50 (A-431 skin cancer cells; Table 9.1): 81.9 µM
Cell survival at given concentration (T24 bladder cancer cells; 101 nM): 1.00
Cell survival at given concentration (T24 bladder cancer cells; 318 nM): 0.97
Cell survival at given concentration (T24 bladder cancer cells; 1 μM): 1.02
Cell survival at given concentration (T24 bladder cancer cells; 3 μM): 1.01
Cell survival at given concentration (T24 bladder cancer cells; 10 μM): 0.96
Cell survival at given concentration (T24 bladder cancer cells; 32 μM): 0.58
Cell survival at given concentration (T24 bladder cancer cells; 100 μM): 0.15
Cell survival at given concentration (T24 bladder cancer cells; 316 μM): 0.03
Cell survival at given concentration (T24 bladder cancer cells; 1000 μM): 0.03
IC50 (T24 bladder cancer cells; Table 3.1, read-out: 1050): 37.8 µM
Cell survival at given concentration (AGS stomach cancer cells; 101 nM): 1.01
Cell survival at given concentration (AGS stomach cancer cells; 318 nM): 1.02
Cell survival at given concentration (AGS stomach cancer cells; 1 μM, Table 10.1): 1.05
Cell survival at given concentration (AGS stomach cancer cells; 3 μM, Table 10.1): 1.02
Cell survival at given concentration (AGS stomach cancer cells; 10 μM, Table 10.1): 0.90
Cell survival at given concentration (AGS stomach cancer cells; 32 μM, Table 10.1): 0.49
Cell survival at given concentration (AGS stomach cancer cells; 100 μM, Table 10.1): 0.20
Cell survival at given concentration (AGS stomach cancer cells; 316 μM): 0.08
Cell survival at given concentration (AGS stomach cancer cells; 1000 μM): 0.00
IC50 (AGS stomach cancer cells; Table 10.1): 33.2 µM
Cell viability % DMSO (naïve CD4^+ T cells; 100 nM): = (90% ≥ ≤110%: =)
Treg induction % DMSO (naïve CD4^+ T cells; 100 nM): = (90% ≥ ≤110%: =)
Cell viability % DMSO (naïve CD4^+ T cells; 1 uM): = (90% ≥ ≤110%: =)
Treg induction % DMSO (naïve CD4^+ T cells; 1 uM): = (90% ≥ ≤110%: =)
Cell survival at given concentration ([5]; 101 nM): 1.05
Cell survival at given concentration ([5]; 318 nM): 0.98
Cell survival at given concentration ([5]; 1 μM): 1.00
Cell survival at given concentration ([5]; 3 μM): 1.03
Cell survival at given concentration ([5]; 10 μM): 1.00
Cell survival at given concentration ([5]; 32 μM): 0.61
Cell survival at given concentration ([5]; 100 μM): 0.25
Cell survival at given concentration ([5]; 316 μM): 0.06
Cell survival at given concentration ([5]; 1000 μM): 0.00
IC50 ([5]; Table 6.1): 46.3 µM
Cell survival at given concentration (MCF7 breast cancer cells; 101 nM): 1.01
Cell survival at given concentration (MCF7 breast cancer cells; 318 nM): 0.99
Cell survival at given concentration (MCF7 breast cancer cells; 1 μM): 0.99
Cell survival at given concentration (MCF7 breast cancer cells; 3 μM): 0.97
Cell survival at given concentration (MCF7 breast cancer cells; 10 μM): 0.96
Cell survival at given concentration (MCF7 breast cancer cells; 32 μM): 0.77
Cell survival at given concentration (MCF7 breast cancer cells; 100 μM): 0.55
Cell survival at given concentration (MCF7 breast cancer cells; 316 μM): 0.51
Cell survival at given concentration (MCF7 breast cancer cells; 1000 μM): 0.11
IC50 (MCF7 breast cancer cells; Table 5.1): 231 µM
Cell survival at given concentration ([6]; 101 nM): 1.03
Cell survival at given concentration ([6]; 318 nM): 1.02
Cell survival at given concentration ([6]; 1 μM): 1.01
Cell survival at given concentration ([6]; 3 μM): 0.97
Cell survival at given concentration ([6]; 10 μM): 0.76
Cell survival at given concentration ([6]; 32 μM): 0.31
Cell survival at given concentration ([6]; 100 μM): 0.17
Cell survival at given concentration ([6]; 316 μM): 0.00
Cell survival at given concentration ([6]; 1000 μM): 0.00
IC50 ([6]; Table 4.1): 20.4 µM
